Experimental data from US10670609B2, “Ytterbium as a surrogate cation to measure calcium flux” (Government of the United States, as represented by the …, priority 2017, dated 2020).
Read-outs that look alike come from different tables or passages of the source.

Tested on: Human retinal pigmented epithelium cells (RPE)
Assay: NO bioassay: DAF-FM DA fluorescence as indicator of NO in RPE cells
Assay type: cell-based
[1] = RPE cells in PBS supplemented with Ca2+ and Mg2+
[2] = RPE cells without calcium (calcium-free PBS)
[3] = Table 3, DAF-FM DA NO fluorescence change vs control, WT RPE cells in PBS with 5 mM Ca2+ + Mg2+ + 8 mM pyruvate, agent 300 ppm unless stated

Structure (SMILES)	NO level (DAF-FM DA fluorescence) relative to control, in words [1]	NO level (DAF-FM DA fluorescence) relative to control, in words [2]	[(E − C)/C] × 100 (N = 3, A.U. %) [3] [%]	NO level (DAF-FM DA fluorescence) relative to control, in words	further results
[Pr+3] [Pr^3+]	dropped by varying degrees	could not be restored	−91		decrease of NO (low DAF-FM DA fluorescence), modal (addition of agent to RPE cells, Table 3): 91%
O=C1c2c(O)cccc2Cc2cccc(O)c21 [Dithranol]			−69		
O=NO [Nitrite, sodium nitrite]				increased relative to control	[(E − C)/C] × 100 (N = 3, A.U. %): 2%
[Ca+2].[Cl-].[Cl-] [Ca^2+, calcium chloride]				slight decrease in NO	
[Ce+3] [Ce^3+]	dropped by varying degrees	could not be restored	−96		
[Fe+3] [Fe^3+]	dropped by varying degrees	could not be restored	−93		
CC(=O)OCOC(=O)CN(CC(=O)OCOC(C)=O)c1ccccc1OCCOc1ccccc1N(CC(=O)OCOC(C)=O)CC(=O)OCOC(C)=O [BAPTA, 1,2-Bis(2-amino-phenoxy)ethane-N,N,N′,N′-tetraacetic acid tetrakis (acetoxymethyl ester)]				lower	[(E − C)/C] × 100 (N = 6, A.U. %): 11%
